Measured values taken from patent US20240368139A1, “NOVEL MODULATORS OF EHMT1 AND EHMT2 AND THERAPEUTIC USE THEREOF” (Tango Therapeutics, Inc., priority 2021, published 2024).

Assays:
H3K9me2 in HCT116 cells = test: HCT116 H3K9me2 in-cell western assay; format: cell-based; settings: Homo sapiens, HCT-116, 72 h, HCT116 cells, 72 hours incubation; read-out: H3K9me2 ICW IC50
In short: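 H3K9me2 signal (800 nm) was normalized to DRAQ5 DNA stain (700 nm) in an in-cell western. Cells were fixed with paraformaldehyde and probed overnight at 4° C with primary antibody.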

human EHMT1 982-1266 = molecular target: T1, human EHMT1 982-1266 (Homo sapiens, UniProt Q9H9B1); test: EHMT1 enzyme assay on histone peptide substrate (3H-SAM SPA); settings: EHMT1 IC50, recombinant human EHMT1 982-1266, histone peptide substrate
T1 sequence (Q9H9B1 982-1266): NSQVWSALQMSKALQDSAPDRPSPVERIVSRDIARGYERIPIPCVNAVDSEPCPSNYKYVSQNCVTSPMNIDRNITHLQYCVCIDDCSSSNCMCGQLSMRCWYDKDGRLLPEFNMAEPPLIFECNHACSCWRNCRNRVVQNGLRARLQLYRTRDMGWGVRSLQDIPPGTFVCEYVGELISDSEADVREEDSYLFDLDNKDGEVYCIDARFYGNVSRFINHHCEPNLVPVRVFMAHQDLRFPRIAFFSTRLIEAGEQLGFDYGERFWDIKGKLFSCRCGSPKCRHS

human EHMT2 913-1193 = molecular target: T2, human EHMT2 913-1193 (Homo sapiens, UniProt Q96KQ7); test: EHMT2 enzyme assay on histone peptide substrate (3H-SAM SPA); settings: EHMT2 IC50, recombinant human EHMT2 913-1193, histone peptide substrate
T2 sequence (Q96KQ7 913-1193): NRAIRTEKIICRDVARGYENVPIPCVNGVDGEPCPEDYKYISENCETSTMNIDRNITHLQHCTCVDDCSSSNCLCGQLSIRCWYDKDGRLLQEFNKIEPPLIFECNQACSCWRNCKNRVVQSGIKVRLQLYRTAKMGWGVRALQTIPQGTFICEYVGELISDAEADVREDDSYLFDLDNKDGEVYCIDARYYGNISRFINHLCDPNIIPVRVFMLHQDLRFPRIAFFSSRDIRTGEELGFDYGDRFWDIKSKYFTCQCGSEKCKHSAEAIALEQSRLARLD

Row | Compound | IC50 (H3K9me2 in HCT116 cells) [nM] | IC50 (human EHMT1 982-1266) [nM] | IC50 (human EHMT2 913-1193) [nM]
1 | CNc1nc(Nc2cc3c(c(C4=CCN(C)CCC4)c2F)OCC3)nc(C)c1OC [Compound 196] | 100 to 500 | 100 to 500 | 500 to 2000
2 | CNc1nc(Nc2cc3c(c(C4=CCNCCC4)c2F)OCCO3)nc(C)c1F [Compound 197] | 100 to 500 | 100 to 500 | 500 to 2000
3 | CNc1cc(C)nc(Nc2cc3c(c(C4=CCNCCC4)c2O)OCC3)n1 [Compound 198] | 100 to 500 | < 100 | 100 to 500
4 | CNc1cc(C)nc(Nc2cc3c(c(C4=CCN(CC(F)F)CCC4)c2F)OCC3)n1 [Compound 199] | 100 to 500 | 100 to 500 | 500 to 2000
5 | CNc1cc(C)nc(Nc2cc3c(c(C4=CC(C)N(C)CCC4)c2F)OCC3)n1 (stereo not drawn) [Compound 200] | 100 to 500 | 100 to 500 | 500 to 2000
6 | CNc1cc(C)nc(Nc2cc3c(c(C4=CCN(C)CCC4)c2F)OCO3)n1 [Compound 203] | < 100 | < 100 | < 100
7 | CNc1cc(C)nc(Nc2cc3c(c(C4=CCN(C)C(C)CC4)c2F)OCC3)n1 (stereo not drawn) [Compound 204] | < 100 | < 100 | < 100
8 | CNc1nc(Nc2cc3c(c(C4=CCN(C)CCC4)c2F)OCO3)nc(C)c1F [Compound 205] | 100 to 500 | 100 to 500 | 500 to 2000
9 | CNc1cc(C)nc(Nc2cc3c(c(C4=CC(C)NCCC4)c2F)OCC3)n1 (stereo not drawn) [Compound 206] | < 100 | < 100 | 100 to 500
10 | CNc1cc(C)nc(Nc2cc3c(c(C4=CCNCCC4)c2F)OCO3)n1 [Compound 207] | < 100 | < 100 | < 100
11 | CNc1cc(Nc2cc3c(c(C4=CCN(C)CCC4)c2F)OCO3)nc(C)c1F [Compound 208] | 100 to 500 | 100 to 500 | 100 to 500
12 | CNc1nc(Nc2cc3c(c(C4=CCNCCC4)c2F)OCO3)nc(C)c1F [Compound 209] | < 100 | 100 to 500 | 100 to 500
13 | CCc1c(C)nc(Nc2cc3c(c(C4=CCN(C)CCC4)c2F)OCC3)nc1NC [Compound 210] | < 100 | < 100 | 100 to 500
14 | CNc1cc(Nc2cc3c(c(C4=CCNCCC4)c2F)OCO3)nc(C)c1F [Compound 211] | < 100 | < 100 | < 100
15 | CCc1c(C)nc(Nc2cc3c(c(C4=CCNCCC4)c2F)OCC3)nc1NC [Compound 212] | < 100 | < 100 | < 100
16 | CNc1nc(Nc2cc3c(c(C4=CCN(C)CCC4)c2F)OCC3)nc(C)c1C [Compound 214] | < 100 | < 100 | < 100
17 | CNc1nc(Nc2cc3c(c(C4=CCN(C)CCC4)c2F)OCC3)nc(C)c1Cl [Compound 215] | 100 to 500 | 100 to 500 | 500 to 2000
18 | [2H]C([2H])([2H])CNc1cc(C)nc(Nc2cc3c(c(C4=CCN(C)CCC4)c2F)OCC3)n1 [Compound 217] | < 100 | < 100 | < 100
19 | [2H]Cc1nc(Nc2cc3c(c(C4=CCN(C)CCC4)c2)OCC3)nc(NC)c1F [Compound 218] | 100 to 500 | 100 to 500 | 500 to 2000
20 | [2H]Cc1nc(Nc2cc3c(c(C4=CCN(C)CCC4)c2F)OCC3)nc(NC([2H])([2H])[2H])c1F [Compound 219] | < 100 | 100 to 500 | 100 to 500
21 | [2H]Cc1nc(Nc2cc3c(c(C4=CCN(C)CCC4)c2)OCC3)nc(NC([2H])([2H])[2H])c1F [Compound 220] | 100 to 500 | 100 to 500 | 500 to 2000
22 | [2H]Cc1nc(Nc2cc3c(c(C4=CCN(C)CCC4)c2F)OCC3)nc(NC)c1F [Compound 221] | < 100 | 100 to 500 | 500 to 2000
23 | [2H]Cc1nc(Nc2cc3c(c(C4=CCN(C)CCC4)c2F)OCC3)nc(NCC([2H])([2H])[2H])c1F [Compound 222] | 100 to 500 | 100 to 500 | 500 to 2000
24 | CNc1nc(Nc2cc3c(c(C4=CCNCCC4)c2F)OCC3)nc(C)c1C [Compound 223, N2-[6-fluoro-7-(2,3,4,7-tetrahydro-1H-azepin-5-yl)-2,3-dihydrobenzofuran-5-yl]-N4,5,6-trimethyl-pyrimidine-2,4-diamine] | < 100 | < 100 | < 100
25 | CNc1nc(Nc2cc3c(c(C4=CCNCCC4)c2F)OCC3)nc(C)c1Cl [Compound 224] | < 100 | < 100 | < 100
26 | [2H]Cc1nc(Nc2cc3c(c(C4=CCNCCC4)c2F)OCC3)nc(NC([2H])([2H])[2H])c1F [Compound 225] | < 100 | < 100 | < 100
27 | [2H]Cc1nc(Nc2cc3c(c(C4=CCNCCC4)c2F)OCC3)nc(NCC([2H])([2H])[2H])c1F [Compound 226] | 100 to 500 | < 100 | 100 to 500
28 | [2H]C([2H])([2H])N1CC=C(c2c(F)c(Nc3nc(C)cc(NC)n3)cc3c2OCC3)CCC1 [Compound 227] | < 100 | < 100 | < 100
29 | [2H]C([2H])([2H])Nc1nc(Nc2cc3c(c(C4=CCN(C)CCC4)c2F)OCC3)nc(C)c1F [Compound 228] | 100 to 500 | < 100 | 100 to 500

Continued, values first:

Row | IC50 (H3K9me2 in HCT116 cells) [nM] | IC50 (human EHMT1 982-1266) [nM] | IC50 (human EHMT2 913-1193) [nM] | Compound
30 | 100 to 500 | < 100 | 100 to 500 | [2H]Cc1nc(Nc2cc3c(c(C4=CCNCCC4)c2)OCC3)nc(NC)c1F [Compound 229]
31 | 100 to 500 | < 100 | 100 to 500 | [2H]Cc1cc(NC([2H])([2H])[2H])nc(Nc2cc3c(c(C4=CCN(C)CCC4)c2)OCCO3)n1 [Compound 230]
32 | < 100 | < 100 | < 100 | [2H]C([2H])([2H])CNc1cc(C)nc(Nc2cc3c(c(C4=CCNCCC4)c2F)OCC3)n1 [Compound 231]
33 | 100 to 500 | 100 to 500 | 100 to 500 | [2H]Cc1nc(Nc2cc3c(c(C4=CCNCCC4)c2)OCC3)nc(NC([2H])([2H])[2H])c1F [Compound 232]
34 | 500 to 2000 | 100 to 500 | 500 to 2000 | [2H]Cc1nc(Nc2cc3c(c(C4=CCNCCC4)c2)OCO3)nc(NCC([2H])([2H])[2H])c1F [Compound 233]
35 | < 100 | < 100 | < 100 | [2H]Cc1cc(NC([2H])([2H])[2H])nc(Nc2cc3c(c(C4=CCN(C)CCC4)c2F)OCC3)n1 [Compound 234]
36 | < 100 | < 100 | < 100 | [2H]Cc1nc(Nc2cc3c(c(C4=CCNCCC4)c2F)OCC3)nc(NC)c1F [Compound 235]
37 | 100 to 500 | < 100 | 100 to 500 | CNc1cc(Nc2cc3c(c(C4=CCN(C)CCC4)c2F)OCCC3)nc(C)c1F [Compound 236]
38 | 100 to 500 | 100 to 500 | 500 to 2000 | [2H]Cc1nc(Nc2cc3c(c(C4=CCNCCC4)c2)OCC3)nc(NCC([2H])([2H])[2H])c1F [Compound 237]
39 | < 100 | < 100 | < 100 | [2H]C([2H])([2H])Nc1cc(C)nc(Nc2cc3c(c(C4=CCN(C)CCC4)c2F)OCC3)n1 [Compound 238]
40 | 100 to 500 | < 100 | 100 to 500 | CCNc1nc(Nc2cc3c(c(C4=CCNCCC4)c2F)OCC3)nc(C)c1F [Compound 239]
41 | 100 to 500 | 100 to 500 | 100 to 500 | [2H]Cc1nc(Nc2cc3c(c(C4=CCNCCC4)c2)OCO3)nc(NC([2H])([2H])[2H])c1F [Compound 240]
42 | 100 to 500 | 100 to 500 | 500 to 2000 | CCNc1nc(Nc2cc3c(c(C4=CCN(C)CCC4)c2F)OCC3)nc(C)c1F [Compound 241]
43 | < 100 | < 100 | < 100 | CNc1nc(Nc2cc3c(c(C4=CCNCCC4)c2F)OCC3)nc(C)c1F [Compound 242]
44 | < 100 | < 100 | < 100 | CNc1cc(Nc2cc3c(c(C4=CCNCCC4)c2F)OCCC3)nc(C)c1F [Compound 243]
45 | 100 to 500 | < 100 | 100 to 500 | [2H]C([2H])([2H])CNc1cc(C)nc(Nc2cc3c(c(C4=CCN(C)CCC4)c2)OCO3)n1 [Compound 244]
46 | 100 to 500 | 100 to 500 | 500 to 2000 | CNc1nc(Nc2cc3c(c(C4=CCN(C)CCC4)c2F)OCC3)nc(C)c1F [Compound 245]
47 | < 100 | < 100 | < 100 | [2H]C([2H])([2H])CNc1cc(C)nc(Nc2cc3c(c(C4=CCNCCC4)c2)OCO3)n1 [Compound 246]
48 | 100 to 500 | 100 to 500 | 100 to 500 | CNc1cc(CC(F)(F)F)nc(Nc2cc3c(c(C4=CCNCCC4)c2)OCC3)c1 [Compound 247]
